For 106 compounds, outcome results are on record in PubChem BioAssay AID2202554 (NIEHS Division of Translational Toxicology (DTT)).

Results filed as inconclusive are left out. Active and inactive are the calls of the source. No rule for the calls is given here.

The series deals with S. typhimurium/E. coli reverse mutation, colony counts. Description: Bacterial reverse mutation test (aka Ames test) summary data. In outline:
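Revertant colony counts on plates, compared with untreated controls, after about two days of growth. Exposure with or without liver S9 (rat/hamster/mouse), dose range per strain, 20-min 37° C preincubation or direct plate incorporation. Strains: his⁻ Salmonella, trp⁻ E. coli WP2 uvrA pKM101.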
With `CCC(=O)O`, the outcome is “inactive; negative”.

Consider `Cc1ccc2nc(-c3ccc(N)cc3)sc2c1`, for which the outcome is “active; positive”.

Turning to `CCC=C1OC(=O)c2ccccc21`, the outcome was “active; positive”.

In the case of `CC(=O)c1ccc(Cl)c(Cl)c1Cl`, the outcome was “active; positive”.

Take `CCOC(C)=O`: the outcome is “inactive; negative”.

`C=CCc1cc(OC)c2c(c1)OCO2`: the outcome is “inactive; negative”.

Consider `COc1cc2c(cc1OC)[C@@]13CCN4CC5=CCO[C@H]6CC(=O)N2[C@H]1[C@H]6[C@H]5C[C@H]43`, for which the outcome is “inactive; negative”.

Take `CC(=O)CC(C)C`: the outcome was “inactive; negative”.

For the compound `Cc1cccc(N)c1C`, the outcome is “active; positive”.

For `Cl/C=C/Cl`, the outcome was “inactive; negative”.

Consider `C=CCOC(=O)CCCCCCCC`, for which the outcome is “inactive; negative”.

With `CC[C@]12CCCN3CCc4c(n(c5ccccc45)[C@@](O)(C(=O)OC)C1)[C@@H]32`, the outcome was “inactive; negative”.

Take `O=C(O)c1ccc(Cl)cc1Cl`: the outcome was “inactive; negative”.

In the case of `O=[N+]([O-])c1cccc(Cl)c1Cl`, the outcome is “active; weakly positive”.

Turning to `CC1=CC(C)(C)Nc2ccccc21`, the outcome is “inactive; negative”.

As for `COc1ccccc1O`, the outcome was “inactive; negative”.

As to `CCCC[N+](=O)[O-]`, the outcome was “inactive; negative”.

As for `Cc1cc(O)c2c(c1)C(=O)c1cc(O)cc(O)c1C2=O`, the outcome was “active; positive”.

With `CC(Cl)Cl`, the outcome was “inactive; negative”.

In the case of `Cc1ccc(N=C=O)cc1N=C=O`, the outcome was “active; positive”.

Take `O=C(O)c1ccccc1`: the outcome is “inactive; negative”.

`O=[N+]([O-])c1c(Cl)cc(Cl)cc1Cl`: the outcome was “inactive; negative”.

Take `OCC(CBr)(CBr)CBr`: the outcome is “active; positive”.

Take `Nc1c(Br)cc(Br)c2c1C(=O)c1ccccc1C2=O`: the outcome was “active; positive”.

As to `O=C1c2ccccc2-c2ccc3c4ccc5c6c(ccc(c7ccc1c2c73)c64)C(=O)c1ccccc1-5`, the outcome was “active; weakly positive”.

Turning to `CC(CN1c2ccccc2Sc2ccccc21)N(C)C` (stereo unspecified), the outcome was “inactive; negative”.

On to `O=C(O)CC(C(=O)O)C(CC(=O)O)C(=O)O` (stereo unspecified), for which the outcome was “active; positive”.

Turning to `COC(=O)CCCC(=O)OC`, the outcome is “inactive; negative”.

Take `CC(C)(C)OOC(=O)c1ccccc1`: the outcome was “active; positive”.

As to `COc1ccc2cc3[n+](cc2c1OC)CCc1cc2c(cc1-3)OCO2`, the outcome was “inactive; negative”.

Consider `COc1c(Cl)c(Cl)c(Cl)c(Cl)c1Cl`, for which the outcome is “active; positive”.

Regarding `CCCCCCCCCCCCCC(=O)N[N+](C)(C)CC(C)[O-]` (stereo unspecified), the outcome is “inactive; negative”.

With `CN(C)c1ccc(C(=O)c2ccc(N(C)C)cc2)cc1`, the outcome is “active; positive”.

For the compound `Cc1ccc(Nc2ccc(O)c3c2C(=O)c2ccccc2C3=O)cc1`, the outcome is “inactive; negative”.

On to `CCCCC(CC)COC(=O)C(C#N)=C(c1ccccc1)c1ccccc1` (stereo unspecified), for which the outcome is “inactive; negative”.

Take `Nc1cccc2c(N)cccc12`: the outcome is “active; positive”.

With `OC[C@@]1(O)CO[C@](O)(CO)CO1`, the outcome was “active; positive”.

As to `O=C([O-])c1ccccn1.O=C([O-])c1ccccn1.O=C([O-])c1ccccn1.[Cr+3]`, the outcome is “inactive; negative”.

As to `Cc1ccc(O)cc1`, the outcome is “inactive; negative”.

As for `CCCCNC(=O)NS(=O)(=O)c1ccc(C)cc1`, the outcome was “inactive; negative”.

On to `CCC=O`, for which the outcome was “inactive; negative”.

On to `C[S+](CC[C@H](N)C(=O)[O-])C[C@H]1O[C@@H](n2cnc3c(N)ncnc32)[C@H](O)[C@@H]1O` (stereo partly specified), for which the outcome was “inactive; negative”.

Turning to `O=C1c2c(O)ccc([N+](=O)[O-])c2C(=O)c2c([N+](=O)[O-])ccc(O)c21`, the outcome was “active; positive”.

Consider `COP(=S)(OC)SCn1nnc2ccccc2c1=O`, for which the outcome is “active; positive”.

Regarding `OC[C@H]1O[C@@H](Oc2ccc(O)cc2)[C@H](O)[C@@H](O)[C@@H]1O`, the outcome is “inactive; negative”.

On to `CCc1ccccc1`, for which the outcome is “inactive; negative”.

Consider `COc1ccc(C(c2ccc(OC)cc2)C(Cl)(Cl)Cl)cc1`, for which the outcome is “inactive; negative”.

As for `O=c1cc(-c2ccc(O)cc2)oc2cc(O)cc(O)c12`, the outcome was “inactive; negative”.

As for `Cc1cc(C)cc(N)c1`, the outcome is “active; weakly positive”.

Take `OCC#CCO`: the outcome was “inactive; negative”.

As to `O=C([O-])c1ccccc1C1c2ccc([O-])c(Br)c2Oc2c1ccc(O)c2Br.[Zr+2]`, the outcome was “inactive; negative”.

Regarding `Cc1ccc(NC(N)=O)cc1`, the outcome is “inactive; negative”.

In the case of `NCCCCCCN`, the outcome was “inactive; negative”.

Consider `C=C(C#N)C(=O)OCC`, for which the outcome was “inactive; negative”.

On to `CCOS(C)(=O)=O`, for which the outcome was “active; positive”.

As to `CCC(O)CN` (stereo unspecified), the outcome is “inactive; negative”.

As to `Nc1ccc(O)c(N)c1`, the outcome is “active; positive”.

As to `OCC=CCO`, the outcome was “active; positive”.

For `CCOP(=S)(OCC)Oc1cc(C)nc(C(C)C)n1`, the outcome was “inactive; negative”.

For `FC(F)(F)c1ccccc1`, the outcome was “inactive; negative”.

In the case of `Cc1ccc(Cl)cc1N`, the outcome is “inactive; negative”.

As for `Clc1c(Cl)c(Cl)c2ccccc2c1Cl`, the outcome was “inactive; negative”.

On to `Cc1cccc([N+](=O)[O-])c1C(=O)O`, for which the outcome is “active; positive”.

As for `Nc1ccc(-c2ccc(N)c(O)c2)cc1O`, the outcome was “active; positive”.

For the compound `Cc1cc(O)c(C(C)(C)C)cc1Sc1cc(C(C)(C)C)c(O)cc1C`, the outcome is “inactive; negative”.

With `CC(C)CO`, the outcome was “inactive; negative”.

Turning to `O=c1c2ccc3c4c(ccc(c24)c2nc4ccccc4n12)c(=O)n1c2ccccc2nc31`, the outcome was “active; positive”.

With `S=c1[nH][nH]c(=S)s1`, the outcome was “inactive; negative”.

For the compound `C(=C\c1ccccc1)/c1ccccc1`, the outcome is “inactive; negative”.

In the case of `O=c1c(-c2ccc(O)cc2)coc2cc(O)cc(O)c12`, the outcome is “active; positive”.

`CC(=O)/C=C/c1ccccc1`: the outcome is “active; positive”.

As to `CCCCCCC[CH2][Sn]1([CH2]CCCCCCC)[O]C(=O)C=CC(=O)[O]1`, the outcome was “inactive; negative”.

For the compound `O=Cc1cccc(Br)c1`, the outcome was “inactive; negative”.

`CN(C)c1cccc(O)c1`: the outcome was “active; positive”.

As for `CC(=O)C(C)=NO`, the outcome was “inactive; negative”.

As to `CCc1cc(C(N)=S)ccn1`, the outcome was “inactive; negative”.

Take `[Li+]`: the outcome was “inactive; negative”.

For `CCCCC(CC)COC(=O)c1ccccc1C(=O)O` (stereo unspecified), the outcome was “inactive; negative”.

Consider `O=c1[nH]cc(F)c(=O)[nH]1`, for which the outcome is “inactive; negative”.

As to `Cc1cccc(OP(=O)(Oc2cccc(C)c2)Oc2cccc(C)c2)c1`, the outcome was “inactive; negative”.

Turning to `C=CC(=O)OCC(C)C`, the outcome is “inactive; negative”.

As for `C[C@@H]1[C@H](O)[C@@H](C)/C=C/C=C/C=C/C=C/C=C/C=C/C=C/[C@H](O[C@@H]2O[C@H](C)[C@@H](O)[C@H](N)[C@@H]2O)C[C@@H]2O[C@](O)(C[C@@H](O)C[C@@H](O)[C@H](O)CC[C@@H](O)C[C@@H](O)CC(=O)O[C@H]1C)C[C@H](O)[C@H]2C(=O)O`, the outcome was “inactive; negative”.

Turning to `CC[C@H](C)COC(=O)C=Cc1ccc(N=Cc2ccc(OC)cc2)cc1`, the outcome was “active; positive”.

`Nc1ccc([N+](=O)[O-])cc1O`: the outcome was “active; positive”.

Regarding `O.O=C([O-])c1ccccn1.O=C([O-])c1ccccn1.O=C([O-])c1ccccn1.[Cr+3]`, the outcome was “inactive; negative”.

`O=C1O[C@H]([C@H](O)CO)C(O)=C1O`: the outcome is “active; weakly positive”.

In the case of `CC(N)CN` (stereo unspecified), the outcome was “inactive; negative”.

As for `Cc1cc(C)c(S(=O)(=O)O)cc1N=Nc1cc(S(=O)(=O)O)c2ccccc2c1O`, the outcome was “inactive; negative”.

For `CCCCCCCCCCCCCCCCC1CO1` (stereo unspecified), the outcome was “inactive; negative”.

Regarding `O.O=S(=O)([O-])[O-].[Mn+2]`, the outcome is “inactive; negative”.

On to `CC1CCCC1`, for which the outcome is “inactive; negative”.

Consider `OC[C@@H](O)[C@@H](O)[C@H](O)[C@H](O)CO`, for which the outcome is “inactive; negative”.

Take `NC(=O)c1ccccc1`: the outcome was “inactive; negative”.

For `C=CCSSCCC`, the outcome is “inactive; negative”.

With `Oc1ccc([C@H]2COc3cc(O)ccc3C2)cc1`, the outcome is “inactive; negative”.

In the case of `CC(=O)Nc1cccc(C)c1`, the outcome was “inactive; negative”.

Consider `N#CC(Br)Br`, for which the outcome was “active; positive”.

With `Cc1cc(N=Nc2ccccc2C)ccc1N`, the outcome was “active; positive”.

On to `[O]=[Zr]`, for which the outcome is “inactive; negative”.

As for `CC(C)OCC1CO1` (stereo unspecified), the outcome is “active; positive”.

On to `OC(CCl)CCl`, for which the outcome is “active; positive”.

Turning to `Nc1ccc2ccccc2c1`, the outcome was “active; positive”.

With `COC(=O)c1ccc(C(=O)OC)cc1`, the outcome is “inactive; negative”.

As to `Nc1cc(Cl)cc(S(=O)(=O)O)c1O`, the outcome is “inactive; negative”.

Turning to `C[C@]12C=CC(=O)C=C1CC[C@@H]1[C@@H]2C(=O)C[C@@]2(C)[C@H]1CC[C@]2(O)C(=O)CO`, the outcome was “active; positive”.

Take `[O]=[W](=[O])=[O]`: the outcome was “inactive; negative”.
